The target of one assay is 5cc7 TCR. Kind of assay: Surface plasmon resonance affinity of peptide-I-Ek for 5cc7 TCR. It counts as binding, murine. Conditions: SPR, peptide exchanged into soluble I-Ek. The source says: Refolded Murine TCRs for crystallography and affinity measurements. Refolded 2B4, 226, and 5cc7 were created essentially as described. For […] and 5c2 crystal structures, the 5c1 and 5c2 peptides were fused to the N-terminus of 5cc7β via a 10-amino acid GlySer linker. TCRs were purified via size exclusion chromatography and assayed via SDS-PAGE to ensure 1:1 α:β stoichiometry. If there were an excess of TCRβ, ββ homodimer was purified away from αβ heterodimer via ion exchange chromatography on a MonoQ column (GE Healthcare) using a 20 mM Tris pH 8/20 mM Tris pH8+ 500 mM NaCl buffer system. Proteins were then reexchanged into HBS for further use.
Surface plasmon resonance. Affinity measurements for peptides bound to I-Ek for 226, 2B4, and 5cc7 TCRs were determined via surface plasmon resonance on a Biacore T100 (GE Healthcare). 10 μM of peptide of interest was added to biotinylated Clip-I-Ek. 1 U thrombin/100 μg MHC was added and incubated at 37°. After 1 hour, pH was lowered by adding sodium cacodylate pH 6.2 to 30 mM and sample was incubated at 37° overnight. Samples were then neutralized with 40 mM HEPES pH 7.2 and stored at 4° until use. pMHC exchanged with the peptide of interest were bound to a Biacore SA chip (GE Healthcare) at a low surface density (100-200 RU) to ensure no recapture of analyte. I-Ek exchanged with a null peptide (MCC K99E) was used as the reference surface. […]

In another assay the test system is AGA1 T cell receptor. Kind of assay: Selection of yeast-displayed HLA-B5703 peptide library with AGA1 TCR, deep sequencing read counts. It counts as binding. The conditions noted are these: for number of times the peptide was represented, Rd1: after round 1 of selection with AGA1 TCR; for number of times the peptide was represented, Rd2: after round 2 of selection with AGA1 TCR; for number of times the peptide was represented, Rd3: after round 3 of selection with AGA1 TCR; for number of times the peptide was represented, Rd4: after round 4 of selection with AGA1 TCR; for number of times the peptide was represented, Naïve: naïve library before selection. The protocol:
Selection of pMHC libraries To maximize sensitivity of selections, all described selection steps were conducted at 4° using cold buffers, and refrigerated centrifuges. All spins were 5,000×g for 1 minute. Before each round of selection, a small sample of yeast (˜1×10^6 cells) were stained with an anti-epitope tag antibody. For the first round of selection, ˜2×10^9 yeast were washed once with PBS+0.5% BSA and 1 mM EDTA (PBE buffer) and then cleared with unloaded Streptavidin Microbeads (250 uL beads in 5 mL PBE) (Miltenyi, 130-048-101) to eliminate any nonspecifically binding yeast clones by incubating 1 hr at 4° with gentle rotation. The yeast were then spun down, resuspended in 5 mL PBE without a wash, and passed through a Miltenyi LS column. […] TCR-binding yeast were then selected via an LS column, washed in SDCAA, and then re-cultured in SDCAA, pH 4.5 at 30° C. overnight. Yeast were re-induced upon reaching OD>2. For each round of selection, at least 10-fold more yeast was used than recovered from the previous round to ensure complete coverage of all selected yeast. Second and third rounds of selection were conducted in the same manner, but with reduced volumes (50 µL of beads in 500 LL PBE). Progress of selections was monitored by counting of cells selected to TCR-bound streptavidin beads as compared to streptavidin beads alone via an Accuri C6 flow cytometer. […] For the final round of selection (conducted when the yeast count enriched by TCR loaded beads was higher than background, usually after 3 rounds), the libraries were stained with 500 nM streptavidin-TCR tetramer as described above, washed 3× with PBE, then incubated with 50 uL anti-Alexa647 Microbeads (Miltenyi, 130-091-395) in 450 µL PBE for 20 minutes. The yeast were washed a final time and passed through a Miltenyi LS column. Enriched yeast were then plated on SDCAA plates for characterization of individual colonies. Individual yeast clones were then screened for tetramer staining as described above. Plasmids containing the selected pMHC were isolated from positive clones via yeast miniprep (Zymoprep II kit, Zymo Research) and sequenced (Sequetech).
Deep sequencing of selection libraries. Pooled plasmids from 5×10^7 yeast from each round of selection were isolated via yeast miniprep (Zymoprep II kit, Zymo Research) and used as PCR template to prepare Illumina samples. Amplicon libraries were designed as follows: (Illumina P5-Truseq read 1-(N8)-Barcode-pMHC-(N8)-Truseq read 2-IlluminaP7). N8 was added immediately after both sequencing primers to generate diversity for low complexity sequencing reads. The adapter and barcode sequences were appended via nested 25-round cycles of PCR of the purified plasmids using Phusion polymerase (NEB). Primers were proximal to the peptide on the pMHC, annealing to the Aga2p leader sequence (5′ end) and MHC β1 domain (3′ end) to ensure high quality sequence reads of the peptide with double coverage. Final PCR products were run on a high percentage agarose gel and purified via gel extraction. PCR products were then quantitated via nanodrop, normalized for each barcoded round of selection to be equally represented, doped with 5-50% PhiX DNA to ensure sufficient sequence diversity for high quality sequence reads, and run on an Illumina MiSeq with 2×150 nt Paired End reads. The initial deep sequencing run, for the 2B4-I-E^k selections, was conducted with 1×150 nt Single End reads. When the sequencing data was analyzed as described below, we saw no significant difference in data quality between single and paired-end reads (as judged by comparing the results for 226/5cc7 when analyzed as single reads vs. paired-end reads). Deep sequencing was conducted at the Stanford Stem Cell Institute Genome Center.
The library was expressed and screened as described above in Example 1, with the AGA1 T cell receptor.
The top 20 peptides after round 3 has the sequences shown below in Table 3. […]

Residues, ends and D or L forms follow the SMILES beside them.

This is an account of results in patent US11846639B2, “Ligand discovery for T cell receptors” (priority 2014, dated 2023).

Regarding `CC[C@H](C)[C@H](NC(=O)[C@H](CC(C)C)NC(=O)[C@H](CC(=O)O)NC(=O)[C@H](C)N)C(=O)N[C@@H](C)C(=O)N[C@@H](Cc1ccc(O)cc1)C(=O)N[C@@H](CC(C)C)C(=O)N[C@@H](CCCCN)C(=O)N[C@@H](CCC(N)=O)C(=O)N[C@@H](C)C(=O)N[C@H](C(=O)N[C@@H](CCCCN)C(=O)O)[C@@H](C)O` [MCC, reference compound] (H-ADLIAYLKQATK-OH; N-terminus and C-terminus assumed), on 5cc7 TCR, binding was put at a Kd of 41 µM.
On to “GTIRPEIREMW [HLA-B5703 library peptide selected with AGA1 TCR]”, for which, in the assay with AGA1 T cell receptor, the “number of times the peptide was represented, Rd1” value (shortened to “number … Rd1”) is 37; the “number of times the peptide was represented, Rd2” value (“number … Rd2” for short) was found to be 36754; the “number of times the peptide was represented, Rd3” value (“number … Rd3” below) stood at 226381; the “number of times the peptide was represented, Rd4” value (shortened to “number … Rd4”) is given as 113394. For the same compound, the “number of times the peptide was represented, Naïve” value (“number … Naïve” for short) in the assay with AGA1 T cell receptor was found to be 5.
For “SSGVPEVRMMF [HLA-B5703 library peptide selected with AGA1 TCR]”, in that order: 38, 40422, 215079, 125041 and 6.
Turning to “ASFSPELRMAW [HLA-B5703 library peptide selected with AGA1 TCR]”, in the assay on AGA1 T cell receptor, the “number … Rd1” value was found to be 10; the “number … Rd2” value turned out to be 9925; the “number … Rd3” value is 47218; the “number … Rd4” value turned out to be 31919. The “number … Naïve” value in the assay with AGA1 T cell receptor is 0.
The corresponding values for “NSFRPEVAMKY [HLA-B5703 library peptide selected with AGA1 TCR]” are 7, 6013, 31331, 19786 and 6.
The corresponding values for “LSLRPEIPLFF [HLA-B5703 library peptide selected with AGA1 TCR]” are 74, 63749, 183724, 189891 and 5.
In the case of “KSCTPEVREYF [HLA-B5703 library peptide selected with AGA1 TCR]”, in the assay with AGA1 T cell receptor, the “number … Rd1” value is recorded as 17; the “number … Rd2” value was 15114; the “number … Rd3” value is 94896; the “number … Rd4” value is 49796. Moreover, the “number … Naïve” value in the assay with AGA1 T cell receptor came to 0.
In the case of “KSLTPEVRGYW [HLA-B5703 library peptide selected with AGA1 TCR]”, in the assay with AGA1 T cell receptor, the “number … Rd1” value is listed as 15; the “number … Rd2” value was determined as 13273; the “number … Rd3” value was 30634; the “number … Rd4” value is given as 38231. Moreover, the “number … Naïve” value in the assay with AGA1 T cell receptor came to 1.
For “WTYRPEVRGVW [HLA-B5703 library peptide selected with AGA1 TCR]”, in that order: 21, 30482, 128915, 91015 and 4.
The corresponding values for “ASFRPELAEFW [HLA-B5703 library peptide selected with AGA1 TCR]” are 11, 14699, 24829, 42208 and 1.
